Measured values: ChEMBL document CHEMBL1201862, “PubChem BioAssay data set” (2004)
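Compound exposure: 48 hours, 5 concentrations, 96-well plates. The concentration for 50% growth inhibition is given as GI50.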 Activity calls are given as the source filed them. Cut-off read from the data, not from the text of the source: active = GI50 up to about 1.1 µM and inactive = higher.

Experiments:
Experiment in all cases: inhibition of tumour cell growth, NCI panel, 48 h
SK-MEL-28 = test system: SK-MEL-28
IGROV-1 = test system: IGROV-1
HL-60 = test system: HL-60
SNB-75 = test system: SNB-75
Hs-578T = test system: Hs-578T
NCI-H522 = test system: NCI-H522
PC-3 = test system: PC-3
SF-268 = test system: SF-268
OVCAR-5 = test system: OVCAR-5
M14 = test system: M14
OVCAR-4 = test system: OVCAR-4
HCT-15 = test system: HCT-15
786-0 = test system: 786-0
U-251 = test system: U-251
MDA-MB-435 = test system: MDA-MB-435
COLO 205 = test system: COLO 205
NCI-H226 = test system: NCI-H226
SNB-19 = test system: SNB-19
ACHN = test system: ACHN
CCRF-CEM = test system: CCRF-CEM

`CC(O)(Cc1ccccc1C#N)Cc1ccccc1C#N` was tested, and the GI50 (SK-MEL-28) was > 100 µM (inactive), the GI50 (IGROV-1) was > 100 µM (inactive) and the GI50 (HL-60) was 4 µM (inactive). For the same compound, the GI50 (SNB-75) was 37 µM (inactive), the GI50 (Hs-578T) was > 100 µM (inactive) and the GI50 (NCI-H522) was > 100 µM (inactive). For the same compound, the GI50 (PC-3) was 71.3 µM (inactive), the GI50 (SF-268) was > 100 µM (inactive) and the GI50 (OVCAR-5) was > 100 µM (inactive). For the same compound, the GI50 (M14) was > 100 µM (inactive), the GI50 (OVCAR-4) was 54.2 µM (inactive) and the GI50 (HCT-15) was 79.3 µM. The GI50 (786-0) was > 100 µM (inactive), the GI50 (U-251) was > 100 µM (inactive) and the GI50 (MDA-MB-435) was > 100 µM (inactive). For the same compound, the GI50 (COLO 205) was 70.8 µM (inactive), the GI50 (NCI-H226) was 50 µM (inactive) and the GI50 (SNB-19) was > 100 µM (inactive). The GI50 (ACHN) was 88.5 µM (inactive).

In the case of `CN(/N=C\c1ccc2ccccc2c1)C1=NCCCCN1`, the GI50 (SK-MEL-28) is reported as 15.2 µM (inactive), the GI50 (IGROV-1) is reported as 26.5 µM (inactive) and the GI50 (HL-60) is reported as 15.1 µM (inactive). For the same compound, the GI50 (SNB-75) was 10.4 µM (inactive), the GI50 (Hs-578T) was 20.6 µM (inactive) and the GI50 (CCRF-CEM) was 23.3 µM (inactive). For the same compound, the GI50 (NCI-H522) was 16.7 µM (inactive), the GI50 (PC-3) was 16.7 µM (inactive) and the GI50 (SF-268) was 34.4 µM (inactive). The GI50 (OVCAR-5) was 36.5 µM (inactive), the GI50 (OVCAR-4) was 30.2 µM (inactive) and the GI50 (HCT-15) was 30.6 µM. For the same compound, the GI50 (786-0) was 15.8 µM (inactive), the GI50 (U-251) was 18 µM (inactive) and the GI50 (MDA-MB-435) was 18.2 µM (inactive). The GI50 (COLO 205) was 16.1 µM (inactive), the GI50 (NCI-H226) was 35.3 µM (inactive) and the GI50 (ACHN) was 33.7 µM (inactive).

`CN(C)CC1CCC(CN(C)C)C1=O` (stereo unspecified) was tested, and the GI50 (SK-MEL-28) was 8.65 µM (inactive), the GI50 (IGROV-1) was 7.94 µM (inactive) and the GI50 (HL-60) was 0.294 µM (active). For the same compound, the GI50 (SNB-75) was 20.7 µM (inactive), the GI50 (Hs-578T) was 3.06 µM (inactive) and the GI50 (NCI-H522) was 0.114 µM (active). The GI50 (PC-3) was 1.98 µM (inactive), the GI50 (SF-268) was 19.5 µM (inactive) and the GI50 (OVCAR-5) was 9.73 µM (inactive). For the same compound, the GI50 (M14) was 2.91 µM (inactive), the GI50 (OVCAR-4) was 5.32 µM (inactive) and the GI50 (HCT-15) was 1.43 µM. The GI50 (786-0) was 1.93 µM (inactive), the GI50 (U-251) was 24.3 µM (inactive) and the GI50 (MDA-MB-435) was 20 µM (inactive). For the same compound, the GI50 (COLO 205) was 0.608 µM (active), the GI50 (NCI-H226) was 19.7 µM (inactive) and the GI50 (SNB-19) was > 100 µM (inactive). The GI50 (ACHN) was 4.7 µM (inactive).

With `CCCC(=O)OC1C(CO)OC(n2cc(F)c(=O)[nH]c2=O)C1F` (stereo unspecified) the GI50 (SK-MEL-28) was > 100 µM (inactive), the GI50 (IGROV-1) was 95.7 µM (inactive) and the GI50 (HL-60) was 80.5 µM (inactive). The GI50 (SNB-75) was 5.86 µM (inactive), the GI50 (Hs-578T) was 53.7 µM (inactive) and the GI50 (CCRF-CEM) was 3.91 µM (inactive). For the same compound, the GI50 (NCI-H522) was > 100 µM (inactive), the GI50 (PC-3) was 92.3 µM (inactive) and the GI50 (OVCAR-5) was > 100 µM (inactive). The GI50 (OVCAR-4) was 60.5 µM (inactive), the GI50 (HCT-15) was > 100 µM and the GI50 (786-0) was 38.5 µM (inactive). For the same compound, the GI50 (U-251) was 7.45 µM (inactive), the GI50 (MDA-MB-435) was 59.4 µM (inactive) and the GI50 (COLO 205) was > 100 µM (inactive). The GI50 (NCI-H226) was > 100 µM (inactive) and the GI50 (ACHN) was 44.1 µM (inactive).

For `CC(C)CN(CC#N)CC(C)C`, the GI50 (SK-MEL-28) was > 100 µM (inactive), the GI50 (IGROV-1) was > 100 µM (inactive) and the GI50 (HL-60) was > 100 µM (inactive). The GI50 (SNB-75) was > 100 µM (inactive), the GI50 (Hs-578T) was > 100 µM (inactive) and the GI50 (NCI-H522) was > 100 µM (inactive). The GI50 (PC-3) was > 100 µM (inactive), the GI50 (SF-268) was > 100 µM (inactive) and the GI50 (OVCAR-5) was > 100 µM (inactive). The GI50 (M14) was > 100 µM (inactive), the GI50 (OVCAR-4) was > 100 µM (inactive) and the GI50 (HCT-15) was > 100 µM. The GI50 (786-0) was > 100 µM (inactive), the GI50 (U-251) was > 100 µM (inactive) and the GI50 (MDA-MB-435) was > 100 µM (inactive). The GI50 (COLO 205) was > 100 µM (inactive), the GI50 (NCI-H226) was > 100 µM (inactive) and the GI50 (SNB-19) was > 100 µM (inactive). For the same compound, the GI50 (ACHN) was > 100 µM (inactive).

For `Brc1ccc(C2=NCSC(c3ccc(Br)cc3)=N2)cc1`, the GI50 (SK-MEL-28) was 46.5 µM (inactive), the GI50 (IGROV-1) was 33.2 µM (inactive) and the GI50 (HL-60) was 11 µM (inactive). The GI50 (SNB-75) was 24.3 µM (inactive), the GI50 (Hs-578T) was 44.1 µM (inactive) and the GI50 (NCI-H522) was 22.2 µM (inactive). The GI50 (PC-3) was 21.2 µM (inactive), the GI50 (SF-268) was 53.3 µM (inactive) and the GI50 (OVCAR-5) was 76 µM (inactive). For the same compound, the GI50 (M14) was 30.5 µM (inactive), the GI50 (OVCAR-4) was 41.9 µM (inactive) and the GI50 (HCT-15) was 28.2 µM. For the same compound, the GI50 (786-0) was 10.7 µM (inactive), the GI50 (U-251) was 16.7 µM (inactive) and the GI50 (MDA-MB-435) was 28.8 µM (inactive). The GI50 (COLO 205) was 59.7 µM (inactive), the GI50 (NCI-H226) was 34.3 µM (inactive) and the GI50 (SNB-19) was 31.8 µM (inactive). The GI50 (ACHN) was 21.7 µM (inactive).
